*1 amine or outer side, *2 acyl side, *3 side chain or, on linkers, in order; H or OH if unused. Where a SMILES comes first, the peptide text is derived from it. Side-chain parts run from the residue outwards. [ ]: non-standard residue; d: D form. The star is where a group is joined. DOTA = O=C(O)CN1CCN(CC(=O)O)CCN(CC(=O)*)CCN(CC(=O)O)CC1; X1 = O=C([C@@H](Cc1ccc(OS(=O)(=O)F)cc1)N[*:1])[*:2]; 2Nal = N[C@@H](Cc1ccc2ccccc2c1)C(=O)O; dNMeOrn = CN[C@H](CCCN)C(=O)O; 4Amb = NCc1ccc(C(=O)O)cc1
Experiments:
Daudi tumor = experiment: PET/CT imaging in tumor mouse model with high CXCR4 expression; assay type: in vivo; details: 7.4-18.5 MBq i.v., 2 hours, p<0.05
Method: (§1) All PET/CT scans were carried out on Mediso nanoScan® PET 122S small animal PET/CT.
(§2) A certain number (n=4) of Daudi tumor mice (for the construction method, see the method in PET Imaging of CXCR4 Receptors in Cancer by a New Optimized Ligand, published by Oliver Demmer et al.) were taken and intravenously injected at specified time points with 7.4-18.5 MBq of ^68Ga-pentixafor (as a control, the labeled precursor is readily commercially available, and the structure is specifically disclosed) and ^68Ga-CXCR4-CB-03 molecules (Note: the injection of the control and investigation molecules was separated apart by at least 12 hours until the previous ^68Ga molecule essentially completely decayed and was essentially completely metabolized). Imaging was carried at the time point of 2 hours, and the SUVmax value in tumor was obtained by a software.

AR42J tumor = experiment: PET/CT imaging in tumor mouse model with high SSTR2 expression; assay type: in vivo; details: 7.4-18.5 MBq i.v., 2 hours, p<0.05
Method: as §1
as §2, with “AR42J” for “Daudi”, “Combination radionuclide therapy using ^177Lu-and ^90Y-labeled somatostatin analogs,” for “PET Imaging of CXCR4 Receptors in Cancer by a New Optimized Ligand,”, “Marion de Jong” for “Oliver Demmer”, “^68Ga-DOTATATE” for “^68Ga-pentixafor”, “^68Ga-SSTR2-CB-02” for “^68Ga-CXCR4-CB-03”

Row | SMILES | drug tumor uptake (SUVmax) compared with ^68Ga-pentixafor (Daudi tumor) | drug tumor uptake (SUVmax) compared with ^68Ga-DOTATATE (AR42J tumor)
1 | CN1C(=O)[C@@H](Cc2ccc(OS(=O)(=O)F)cc2)NC(=O)CNC(=O)[C@H](Cc2ccc3ccccc3c2)NC(=O)[C@H](CCCNC(=N)N)NC(=O)[C@H]1CCCNC(=O)c1ccc(CNC(=O)CN2CCN(CC(=O)O)CCN(CC(=O)O)CCN(CC(=O)O)CC2)cc1 [^68Ga-CXCR4-CB-03, metal not drawn] (cyclo([2Nal]G[X1][dNMeOrn]([4Amb-DOTA])R)) | significantly higher | 
2 | C[C@@H](O)[C@H](NC(=O)[C@@H]1CSSC[C@H](NC(=O)[C@@H](Cc2ccccc2)NC(=O)CN2CCN(CC(=O)O)CCN(CC(=O)O)CCN(CC(=O)O)CC2)C(=O)N[C@@H](Cc2ccc(OS(=O)(=O)F)cc2)C(=O)N[C@H](Cc2c[nH]c3ccccc23)C(=O)N[C@@H](CCCCN)C(=O)N[C@@H]([C@@H](C)O)C(=O)N1)C(=O)O [^68Ga-SSTR2-CB-02, metal not drawn] |  | significantly higher

— patent publication US20260137820A1, “TRIFUNCTIONAL COMPOUND AND USE THEREOF” (PEKING UNIVERSITY, priority 2022, published 2026)
